# From patent US20070128217A1 (priority 2003, published 2007)
# How the values were obtained:
# [1] = system: rabbit serum obtained by immunizing a rabbit with the SARS-CoV strain Frankfurt 1; format: binding; design: Binding of a rabbit serum to linear peptides / Binding of a rabbit serum to looped peptides / Rabbit serum linear peptides / Rabbit serum looped peptides / Binding of a rabbit serum to linear peptides of protein N of SARS-CoV Urbani (Rabbit serum linear peptides) / Binding of a rabbit serum to looped/cyclic peptides of protein N of SARS-CoV Urbani (Rabbit serum looped peptides): unit not given here
# [2] = system: recombinant human anti-SARS-CoV antibody 03-018; format: binding; design: Binding of antibody 03-018 to linear peptides of the N protein of SARS-CoV Urbani / Binding of antibody 03-018 to looped/cyclic peptides of the N protein of SARS-CoV Urbani: unit not given here
# [3] = system: antibodies in sera from SARS patients (sera 1a, 1b, 2, 6, 37, 62, London, SARS-yellow, SARS-green); format: binding, human; design: Binding of serum 6 to linear peptides of protein X1 of SARS-CoV Urbani / Binding of serum 37 to linear peptides of protein X1 of SARS-CoV Urbani / Binding of serum 6 to looped/cyclic peptide (PEPSCAN-ELISA) / Binding of serum 37 to looped/cyclic peptide (PEPSCAN-ELISA) / Binding of serum 37 to looped/cyclic peptides of protein X1 of SARS-CoV Urbani / Binding of serum 6 to linear peptides of protein X2 / Binding of serum 37 to linear peptides of protein X2 / Binding of serum 37 to looped/cyclic peptides of protein X2 of SARS-CoV Urbani / Binding of serum 6 to linear peptides of protein M of SARS-CoV Urbani / Binding of serum 37 to linear peptides of protein M of SARS-CoV Urbani / Binding of serum 6 to looped/cyclic peptides of protein M of SARS-CoV Urbani / Binding of serum 37 to looped/cyclic peptides of protein M of SARS-CoV Urbani / Binding of serum 6 to linear peptides of protein X3 of SARS-CoV Urbani / Binding of serum 37 to linear peptides of protein X3 of SARS-CoV Urbani / Binding of serum 37 to looped/cyclic peptides of protein X3 of SARS-CoV Urbani / Binding of serum 6 to linear peptides of protein X4 of SARS-CoV Urbani / Binding of serum 37 to linear peptides of protein X4 of SARS-CoV Urbani / Binding of serum 37 to looped/cyclic peptides of protein X4 of SARS-CoV Urbani / Binding of serum 6 to linear peptides of protein X5 of SARS-CoV Urbani / Binding of serum 37 to linear peptides of protein X5 of SARS-CoV Urbani / Binding of serum 37 to looped/cyclic peptides of protein X5 of SARS-CoV Urbani / Binding of serum 6 to linear peptides of protein N of SARS-CoV Urbani / Binding of serum 37 to linear peptides of protein N of SARS-CoV Urbani / Binding of serum 6 to linear peptide (PEPSCAN-ELISA) / Binding of serum 1a to looped/cyclic peptides of protein N of SARS-CoV Urbani / Binding of serum 1b to looped/cyclic peptides of protein N of SARS-CoV Urbani / Binding of serum 2 to looped/cyclic peptides of protein N of SARS-CoV Urbani / Binding of serum 6 to looped/cyclic peptides of protein N of SARS-CoV Urbani / Binding of serum 37 to looped/cyclic peptides of protein N of SARS-CoV Urbani / Binding of serum 62 to looped/cyclic peptides of protein N of SARS-CoV Urbani / Binding of serum London to looped/cyclic peptides of protein N of SARS-CoV Urbani / Binding of serum SARS-green to looped/cyclic peptides of protein N of SARS-CoV Urbani: unit not given here
# [4] = system: control sera (pooled serum of ten healthy LUMC hospital workers; commercial negative donor pooled serum from the Dutch bloodbank); format: binding, human; design: Binding of Control serum LUMC to linear peptides / Binding of Control serum Blood-bank to linear peptides / Binding of Control serum LUMC to looped peptides / Binding of Control Serum Blood-Bank to Looped peptides / Binding of Control serum LUMC to linear peptides of the protein M of SARS-CoV Urbani / Binding of Control serum Blood-bank to linear peptides of the protein M of SARS-CoV Urbani / Binding of Control serum LUMC to looped peptides of the protein M of SARS-CoV Urbani / Binding of Control Serum Blood-Bank to Looped peptides of the protein M of SARS-CoV Urbani: unit not given here
sequence,measurement,setting,value
TPGSSRGNSPARMAS,Recognition of the peptide by the rabbit serum,[1],recognized
same,Binding of antibody 03-018 to linear peptides of the N protein of SARS-CoV Urbani,[2],0.1
same,Binding of antibody 03-018 to looped/cyclic peptides of the N protein of SARS-CoV Urbani,[2],0.3
same,Binding of serum 1a to linear peptide (PEPSCAN-ELISA),[3],0.3
same,Binding of serum 1a to looped/cyclic peptides of protein N of SARS-CoV Urbani,[3],0.4
same,Binding of serum 1b to linear peptide (PEPSCAN-ELISA),[3],0.2
same,Binding of serum 1b to looped/cyclic peptides of protein N of SARS-CoV Urbani,[3],0.2
same,Binding of serum 2 to linear peptide (PEPSCAN-ELISA),[3],0.3
same,Binding of serum 2 to looped/cyclic peptides of protein N of SARS-CoV Urbani,[3],0.5
same,Binding of serum 6 to linear peptide (PEPSCAN-ELISA),[3],0.2
same,Binding of serum 6 to looped/cyclic peptides of protein N of SARS-CoV Urbani,[3],0.4
same,Binding of serum 37 to linear peptide (PEPSCAN-ELISA),[3],0.8
same,Binding of serum 37 to looped/cyclic peptides of protein N of SARS-CoV Urbani,[3],0.6
same,Binding of serum 62 to linear peptide (PEPSCAN-ELISA),[3],0.7
same,Binding of serum 62 to looped/cyclic peptides of protein N of SARS-CoV Urbani,[3],0.6
same,Binding of serum London to linear peptide (PEPSCAN-ELISA),[3],0.5
same,Binding of serum London to looped/cyclic peptides of protein N of SARS-CoV Urbani,[3],0.5
same,Binding of serum SARS-green to linear peptide (PEPSCAN-ELISA),[3],0.6
same,Binding of serum SARS-green to looped/cyclic peptides of protein N of SARS-CoV Urbani,[3],0.4
same,Binding of serum SARS-yellow to linear peptide (PEPSCAN-ELISA),[3],0.8
same,Binding of serum SARS-yellow to looped/cyclic peptides of protein N of SARS-CoV Urbani,[3],0.5
DDKDPQFKDNVILLN,Binding of a rabbit serum to linear peptides of protein N of SARS-CoV Urbani (Rabbit serum linear peptides),[1],0.1
same,Binding of a rabbit serum to looped/cyclic peptides of protein N of SARS-CoV Urbani (Rabbit serum looped peptides),[1],0.4
same,Binding of antibody 03-018 to linear peptides of the N protein of SARS-CoV Urbani,[2],0.1
same,Binding of antibody 03-018 to looped/cyclic peptides of the N protein of SARS-CoV Urbani,[2],0.3
TVLQLPQGTTLPKGF,Binding of a rabbit serum to linear peptides of protein N of SARS-CoV Urbani (Rabbit serum linear peptides),[1],0.3
same,Binding of a rabbit serum to looped/cyclic peptides of protein N of SARS-CoV Urbani (Rabbit serum looped peptides),[1],1.2
same,Binding of antibody 03-018 to linear peptides of the N protein of SARS-CoV Urbani,[2],0.1
same,Binding of antibody 03-018 to looped/cyclic peptides of the N protein of SARS-CoV Urbani,[2],0.3
NSTPGSSRGNSPARM,Recognition of the peptide by the rabbit serum,[1],recognized
same,Binding of antibody 03-018 to linear peptides of the N protein of SARS-CoV Urbani,[2],0.2
same,Binding of antibody 03-018 to looped/cyclic peptides of the N protein of SARS-CoV Urbani,[2],0.3
same,Binding of serum 1a to linear peptide (PEPSCAN-ELISA),[3],0.7
same,Binding of serum 1a to looped/cyclic peptides of protein N of SARS-CoV Urbani,[3],0.8
same,Binding of serum 1b to linear peptide (PEPSCAN-ELISA),[3],0.5
same,Binding of serum 1b to looped/cyclic peptides of protein N of SARS-CoV Urbani,[3],0.7
same,Binding of serum 2 to linear peptide (PEPSCAN-ELISA),[3],0.4
same,Binding of serum 2 to looped/cyclic peptides of protein N of SARS-CoV Urbani,[3],0.6
same,Binding of serum 6 to linear peptide (PEPSCAN-ELISA),[3],0.6
same,Binding of serum 6 to looped/cyclic peptides of protein N of SARS-CoV Urbani,[3],0.4
same,Binding of serum 37 to linear peptide (PEPSCAN-ELISA),[3],1.2
same,Binding of serum 37 to looped/cyclic peptides of protein N of SARS-CoV Urbani,[3],0.6
same,Binding of serum 62 to linear peptide (PEPSCAN-ELISA),[3],1.2
same,Binding of serum 62 to looped/cyclic peptides of protein N of SARS-CoV Urbani,[3],0.6
same,Binding of serum London to linear peptide (PEPSCAN-ELISA),[3],1.6
same,Binding of serum London to looped/cyclic peptides of protein N of SARS-CoV Urbani,[3],0.5
same,Binding of serum SARS-green to linear peptide (PEPSCAN-ELISA),[3],1.8
same,Binding of serum SARS-green to looped/cyclic peptides of protein N of SARS-CoV Urbani,[3],0.4
same,Binding of serum SARS-yellow to linear peptide (PEPSCAN-ELISA),[3],1.5
same,Binding of serum SARS-yellow to looped/cyclic peptides of protein N of SARS-CoV Urbani,[3],0.4
LLWPVTLACFVLAAV,Rabbit serum linear peptides,[1],0.2
same,Rabbit serum looped peptides,[1],0.3
same,Binding of Control Serum Blood-Bank to Looped peptides of the protein M of SARS-CoV Urbani,[4],0.6
same,Binding of Control serum Blood-bank to linear peptides of the protein M of SARS-CoV Urbani,[4],0.7
same,Binding of Control serum LUMC to linear peptides of the protein M of SARS-CoV Urbani,[4],0.7
same,Binding of Control serum LUMC to looped peptides of the protein M of SARS-CoV Urbani,[4],0.7
same,Binding of serum 1a to linear peptides of protein M of SARS-CoV Urbani,[3],0.7
same,Binding of serum 1a to looped/cyclic peptides of protein M of SARS-CoV Urbani,[3],0.9
same,Binding of serum 1b to linear peptides of protein M of SARS-CoV Urbani,[3],0.5
same,Binding of serum 1b to looped/cyclic peptides of protein M of SARS-CoV Urbani,[3],0.5
same,Binding of serum 2 to linear peptides of protein M of SARS-CoV Urbani,[3],0.6
same,Binding of serum 2 to looped/cyclic peptides of protein M of SARS-CoV Urbani,[3],0.9
same,Binding of serum 6 to linear peptides of protein M of SARS-CoV Urbani,[3],0.4
same,Binding of serum 6 to looped/cyclic peptides of protein M of SARS-CoV Urbani,[3],0.6
same,Binding of serum 37 to linear peptides of protein M of SARS-CoV Urbani,[3],0.5
same,Binding of serum 37 to looped/cyclic peptides of protein M of SARS-CoV Urbani,[3],0.8
same,Binding of serum 62 to linear peptides of protein M of SARS-CoV Urbani,[3],0.5
same,Binding of serum 62 to looped/cyclic peptides of protein M of SARS-CoV Urbani,[3],0.8
same,Binding of serum London to linear peptides of protein M of SARS-CoV Urbani,[3],0.3
same,Binding of serum London to looped/cyclic peptides of protein M of SARS-CoV Urbani,[3],0.3
same,Binding of serum SARS-green to linear peptides of protein M of SARS-CoV Urbani,[3],0.5
same,Binding of serum SARS-green to looped/cyclic peptides of protein M of SARS-CoV Urbani,[3],0.4
same,Binding of serum SARS-yellow to linear peptides of protein M of SARS-CoV Urbani,[3],0.1
same,Binding of serum SARS-yellow to looped/cyclic peptides of protein M of SARS-CoV Urbani,[3],0.9
